Our source for the chromatographic logP and logP values is patent US20090030024A1, “THIAZOLES AS FUNGICIDES” (priority 2005, published 2009).

Molecules are shown by their SMILES. Marks after values point to notes of the source that are not given here.

One series is described as follows: logP determination by retention times (calibration with alkan-2-ones).
Conditions: not given
Consider `CC(=O)c1cccc(Nc2nccc(-c3sc(C)nc3C)n2)c1` [Example 2, 1-(3-{[4-(2,4-dimethyl-1,3-thiazol-5-yl)pyrimidin-2-yl]amino}phenyl)ethanone], for which the chromatographic logP (in general, a lipophilicity value derived from retention on a column) worked out at 2.14.

`CC(=O)c1cccc(Nc2nccc(-c3sc(N)nc3C)n2)c1` [Example 4, 1-(3-{[4-(2-amino-4-methyl-1,3-thiazol-5-yl)pyrimidin-2-yl]amino}phenyl)ethanone]: the chromatographic logP worked out at 1.47.

`CC(=O)c1cccc(Nc2nccc(-c3sc(C4CCCCC4)nc3C)n2)c1` [Example 6, 1-(3-{[4-(2-cyclohexyl-4-methyl-1,3-thiazol-5-yl)pyrimidin-2-yl]amino}phenyl)ethanone] yielded a chromatographic logP of 4.11.

Consider `CC(=O)c1cccc(Nc2nccc(-c3sc(C(C)C)nc3C)n2)c1` [Example 10, 1-(3-{[4-(2-isopropyl-4-methyl-1,3-thiazol-5-yl)pyrimidin-2-yl]amino}phenyl)ethanone], for which the chromatographic logP stood at 3.1.

The molecule `CC(=O)c1cccc(Nc2nccc(-c3cnc(C)s3)n2)c1` [Example 11, 1-(3-{[4-(2-methyl-1,3-thiazol-5-yl)pyrimidin-2-yl]amino}phenyl)ethanone] displayed a chromatographic logP of 2.57.

As to `COCc1nc(C)c(-c2ccnc(Nc3cccc(C(C)=O)c3)n2)s1` [Example 24, 1-[3-({4-[2-(methoxymethyl)-4-methyl-1,3-thiazol-5-yl]pyrimidin-2-yl}amino)phenyl]ethanone], the chromatographic logP came out at 2.38.

With `CC(=O)c1cccc(Nc2nccc(-c3sc(C)nc3C(F)(F)F)n2)c1` [Example 26, 1-[3-({4-[2-methyl-4-(trifluoromethyl)-1,3-thiazol-5-yl]pyrimidin-2-yl}amino)phenyl]ethanone], the chromatographic logP amounted to 3.02.

For the molecule `CSc1nc(C)c(-c2ccnc(Nc3cccc(C(C)=O)c3)n2)s1` [Example 28, 1-[3-({4-[4-methyl-2-(methylthio)-1,3-thiazol-5-yl]pyrimidin-2-yl}amino)phenyl]ethanone], the chromatographic logP turned out to be 2.99.

For the molecule `CC(=O)c1cccc(Nc2nccc(-c3sc(NCC4CCCO4)nc3C)n2)c1` (centres unmarked) [Example 39, 1-{3-[(4-{4-methyl-2-[(tetrahydrofuran-2-ylmethyl)amino]-1,3-thiazol-5-yl}pyrimidin-2-yl)amino]phenyl}ethanone], the chromatographic logP came out at 1.82.

The molecule `CSc1nc(C)c(-c2ccnc(Nc3ccc(N(C)C)c(Cl)c3)n2)s1` [Example 61, 2-chloro-N1,N1-dimethyl-N4-{4-[4-methyl-2-(methylthio)-1,3-thiazol-5-yl]pyrimidin-2-yl}benzene-1,4-diamine] yielded a chromatographic logP of 2.74.

Molecule `Cc1nc(C2CC2)sc1-c1ccnc(Nc2ccc(N(C)C)c(Cl)c2)n1` [Example 63, 2-chloro-N4-[4-(2-cyclopropyl-4-methyl-1,3-thiazol-5-yl)pyrimidin-2-yl]-N1,N1-dimethylbenzene-1,4-diamine] showed a chromatographic logP of 2.59.

`Cc1nc(C(C)C)sc1-c1ccnc(Nc2ccc(N(C)C)c(Cl)c2)n1` [Example 64, 2-chloro-N4-[4-(2-isopropyl-4-methyl-1,3-thiazol-5-yl)pyrimidin-2-yl]-N1,N1-dimethylbenzene-1,4-diamine]: the chromatographic logP was 2.72.

With `COCc1nc(C)c(-c2ccnc(Nc3ccc(N(C)C)c(Cl)c3)n2)s1` [Example 65, 2-chloro-N4-{4-[2-(methoxymethyl)-4-methyl-1,3-thiazol-5-yl]pyrimidin-2-yl}-N1,N1-dimethylbenzene-1,4-diamine], the chromatographic logP stood at 2.04.

The molecule `COCCOC(=O)Nc1ccc(Nc2nccc(-c3sc(C4CC4)nc3C)n2)cc1` [Example 71, 2-methoxyethyl-(4-{[4-(2-cyclopropyl-4-methyl-1,3-thiazol-5-yl)pyrimidin-2-yl]amino}phenyl)carbamate] displayed a chromatographic logP of 2.51.

`COCCOC(=O)Nc1ccc(Nc2nccc(-c3sc(C(C)C)nc3C)n2)cc1` [Example 74, 2-methoxyethyl-(4-{[4-(2-isopropyl-4-methyl-1,3-thiazol-5-yl)pyrimidin-2-yl]amino}phenyl)carbamate] registered a chromatographic logP of 2.67.

`Cc1nc2c(s1)-c1nc(Nc3cccc([N+](=O)[O-])c3)ncc1CC2` [Example 95, 2-Methyl-N-(3-nitrophenyl)-4,5-dihydro[1,3]thiazolo[4,5-h]quinazoline-8-amine] returned a chromatographic logP of 2.79.

`COCc1nc(C)c(-c2ccnc(Nc3cccc(O)c3)n2)s1` [Example 101, 3-({4-[2-(methoxymethyl)-4-methyl-1,3-thiazol-5-yl]pyrimidin-2-yl}amino)phenol] gave a chromatographic logP of 1.97.

`Cc1nc(C(F)(F)F)c(-c2ccnc(Nc3cccc(O)c3)n2)s1` [Example 103, 3-({4-[2-methyl-4-(trifluoromethyl)-1,3-thiazol-5-yl]pyrimidin-2-yl}amino)phenol] returned a chromatographic logP of 2.52.

In the case of `COCC(C)Nc1nc(C)c(-c2ccnc(Nc3cccc(O)c3)n2)s1` (centres unmarked) [Example 129, 3-[(4-{2-[(2-methoxy-1-methylethyl)amino]-4-methyl-1,3-thiazol-5-yl}pyrimidin-2-yl)amino]phenol], the chromatographic logP came out at 1.53.

The molecule `Cc1nc(C)c(-c2ccnc(Nc3cccc(O)c3)n2)s1` [Example 141, 3-{[4-(2,4-dimethyl-1,3-thiazol-5-yl)pyrimidin-2-yl]amino}phenol] returned a chromatographic logP of 1.84.

`Cc1nc(C2CCCCC2)sc1-c1ccnc(Nc2cccc(C(=O)O)c2)n1` [Example 145, 3-{[4-(2-cyclohexyl-4-methyl-1,3-thiazol-5-yl)pyrimidin-2-yl]amino}benzoic acid] had a chromatographic logP of 3.27.

For the molecule `Cc1nc(C2CCCCC2)sc1-c1ccnc(Nc2cccc(O)c2)n1` [Example 146, 3-{[4-(2-cyclohexyl-4-methyl-1,3-thiazol-5-yl)pyrimidin-2-yl]amino}phenol], the chromatographic logP came to 3.33.

The same series, now with this note: HPLC, reversed-phase C 18, EEC Directive 79/831 Annex V.A8; method *: 40° C., 0.1% aqueous formic acid and acetonitrile, linear gradient 10% to 95% acetonitrile.
Regarding `CC(=O)c1cccc(Nc2nccc(-c3sc(N(C)C)nc3C(F)(F)F)n2)c1` [Example 23, 1-[3-({4-[2-(dimethylamine)-4-(trifluoromethyl)-1,3-thiazol-5-yl]pyrimidin-2-yl}amino)phenyl]ethanone], the logP is recorded as 1.91*.

`CNc1nc(C)c(-c2ccnc(Nc3cccc(C(C)=O)c3)n2)s1` [Example 27, 1-[3-({4-[4-methyl-2-(methylamine)-1,3-thiazol-5-yl]pyrimidin-2-yl}amino)phenyl]ethanone]: the logP is given as 1.62*.

Regarding `Cc1nc(NC(C)(C)C)sc1-c1ccnc(Nc2cccc(O)c2)n1` [Example 102, 3-({4-[2-(tert-butylamine)-4-methyl-1,3-thiazol-5-yl]pyrimidin-2-yl}amino)phenol], the logP was 1.82*.

For the molecule `Cc1nc2c(s1)-c1nc(Nc3cccc(O)c3)ncc1CC2` [Example 126, 3-[(2-methyl-4,5-dihydro[1,3]thiazole[4,5-h]quinazolin-8-yl)amino]phenol], the logP is 1.77*.

Still in this series, the particulars now being: logP(HCOOH), HCOOH.
For `Cc1nc(C)c(-c2nc(Cl)ncc2Cl)s1` [2,5-Dichloro-4-(2,4-dimethyl-1,3-thiazol-5-yl)pyrimidine], the chromatographic logP was found to be 2.47.

As to `Cc1nc2c(s1)C(=O)CCC2` [2-Methyl-7-oxo-4,5,6,7-tetrahydrobenzothiazole], the chromatographic logP came to 1.08.

`Cc1nc2c(s1)-c1nc(Nc3cccc([N+](=O)[O-])c3)ncc1CC2` [Example 95, 2-Methyl-N-(3-nitrophenyl)-4,5-dihydro[1,3]thiazolo[4,5-h]quinazoline-8-amine]: the chromatographic logP turned out to be 2.79.
